In patent US7910750B2, “Artemisinin (qinghaosu) derivatives, their preparation methods and their use, and pharmaceutical compositions containing the same” (Shanghai Institute of Materia Medica, Chinese Academy of …, priority 2005, dated 2011):
Values after ≈ are worked out from the molar mass of the structure shown. Like-named read-outs stand apart in the source and are kept apart here.

Legend:
[1] = Lymphocytotoxicity test (MTT); assay type: cell-based, mouse; conditions: BALB/c, primary spleen cells (splenic mononuclear cells), mouse spleen cells
Procedure: (§1) A. Lymphocytotoxicity Test
(§2) 1. BALB/c mice were killed by cervical dislocation, and their spleens were removed aseptically. A single spleen cell suspension was prepared and cell debris and clumps were removed.
(§3) 2. 80 μL cell suspension, 40 μL testing sample, 40 μL medium containing 10% FBS were added into 96 well plate; for the control group, 80 μL medium was added the total volume was 160 μL, and blank control group was set.
(§4) 3. After incubated in 5% CO2 incubator at 37° C. for 48 hours, 16 μL MTT (5 mg/mL) reagent was added into each well 6-7 hours before the termination of the incubation.

[2] = system: T lymphocyte; assay: Lymphocyte proliferation test, T lymphocyte proliferation response induced by ConA ([3H]-thymidine); assay type: cell-based, mouse; conditions: 48 hours
Procedure: B. Lymphocyte Proliferation Test […] […] 3. After incubated in 5% CO2 incubator at 37° C. for 48 hours, 0.5 μCi [^3H]-thymidine (25 μL/well) was added into each well 7-8 hours before the termination of the incubation. 4.

[3] = system: B lymphocyte; assay: Lymphocyte proliferation test, B lymphocyte proliferation response induced by LPS ([3H]-thymidine); assay type: cell-based, mouse; conditions: 48 hours
Procedure: 3. After incubated in 5% CO2 incubator at 37° C. for 48 hours, 0.5 μCi [^3H]-thymidine (25 μL/well) was added into each well 7-8 hours before the termination of the incubation. 4.

[4] = system: BALB/c mouse spleen cells; assay: Lymphocytotoxicity test (MTT); assay type: cell-based; conditions: 48 hours
Procedure: as §1, §2, §3, §4

[5] = system: SD rats; conditions: intraperitoneally injected
[6] = system: BALB/c mice; conditions: ear swelling
Procedure: Each rear paw of BALB/c mice (female, 6-8 weeks old) was sensitized with 20 μL 0.5% DNFB (2,4-dinitrofluorobenzene) on day 0, and was reinforced next day (DNFB was dissolved in an oil agent [acetone:olive oil=4:1]);
Inside and outside of left ear of the mice were challenged with 10 μL 0.4% DNFB at day 7-9;
The test sample was administrated once 1 hour before challenge by i.p. injection or intragastric adminatration. After 12 hours, administered again;
24-48 hours after challenge, each index was measured.
Note: For BALB/c mice (female, 6-8 weeks old), the concentration of sensitizing agent was 0.7%, the concentration of challenging agent was 0.6%.

[7] = system: BALB/c mouse spleen cells and C57BL/6 mouse spleen cells
Procedure: C. Mixed Lymphocyte Reaction (MLR)
1. C57BL/6 and BALB/c mice were killed by cervical dislocation, their spleens were removed aseptically, and a single spleen cell suspension was prepared. After the red blood cells were removed, the cell concentration was adjusted to 4×10^6/mL with RPMI-1640 medium containing 10% FBS.
2. The spleen cells of C57BL/6 mice were response cells, and the spleen cells of BALB/c mice (irradiated with Co60, 3000 rads) were stimulator cells, the two kinds of cells were mixed with equal volumes.
3. 100 μL mixed cell suspension, 100 μL test sample were added into a 96-well plate; for the control group, 100 μL medium containing 10% serum was added, and single culture controls of the two kinds of cells were set.
4. Incubated in 5% CO2 incubator at 37° C. for 3, 4 or 5 days. 25 μL ^3H dilution (i.e. […] [^3H]-thymidine) was added 1 day before the termination of the incubation.
5. The incubation was terminated, the plate was freezed in a −20° C. refrigerator.
6. The cells were harvested with a cell harvestor ([…]96®, TOMTEC) on a glass fiber film, the incorporation of [^3H]-thymidine in DNA was detected with a liquid scintillation counter (MicroBeta Trilux®, PerkinElmer), which reflected the state of cell proliferation.

[8] = system: BALB/c mice; conditions: administered in vivo, BALB/c mice immunized with sheep red blood cells
Procedure: F. Production of Anti Sheep Red Blood Cell Specific Antibody of Mouse B Cells
Fresh sheep red blood cells (SRBC) were washed 3 times with PBS (pH7.2), and diluted by 1:20;
Fresh serum of guinea pig was diluted by 1:10;
2×10^7/mL of mouse spleen cell suspension was prepared;
Each 1 mL of the above three solutions was mixed and incubated at 37° C. for 1.5 hours, then is centrifuged with 2500 rpm×15 min. OD value was measured at 520 nM.
BALB/c mice were sensitized 3 days after administration: the sheep red blood cells were washed 3 times with saline, and the SRBC pressed volume was diluted by a rate of 5%. Each mouse was intraperitoneally injected with 0.2 mL, and dissected to take its spleen 6 days after sensitization. And the production amount of the antibodies was measured.

[9] = system: IL-2; conditions: stimulator ConA, 24 hours
Procedure: (§5) D. Induction and Detection of Cytokine
(§6) 1. BALB/c mice were killed by cervical dislocation, their spleens were removed aseptically, and a single spleen cell suspension was prepared. After the red blood cells were removed, the cell concentration was adjusted to 5×10^6/mL with RPMI-1640 medium containing 10% FBS.
(§7) 2. 1 mL cell suspension, 0.5 mL test sample and 0.5 mL ConA (final concentration 5 μg/mL) or Sac (Staphylococcus aureus thallus containing staphylococcus protein A) (final concentration 0.01%) were added into […]; for the control group, 0.5 mL medium containing 10% FBS was added, the final volume was 2 mL.
(§8) 3. Incubated in 5% CO2 incubator at 37° C. for 24 or 48 hours, the supernatant was collected and freezed in −20° C. refrigerator, the cytokines was to be detected.
(§9) 4. Production of cytokines was detected with a double antibody sandwich enzyme linked immunosorbent assay (ELISA). TMB was used as substrate of the enzyme reaction, and the OD values was measured with a microplate reader at 450 nm. The production amount of cytokines of the samples was calculated according to the standard curve.

[10] = system: IFN-γ; conditions: for production of cytokine IFN-γ: 24 hours
Procedure: as §5, §6, §7, §8, §9

[11] = system: TNF-α; conditions: stimulated with PMA; dose dependent
Procedure: as §5, §6, §7, §8, §9

[12] = system: IL-6; conditions: for production of cytokine IL-6: 24 hours
Procedure: as §5, §6, §7, §8, §9

[13] = system: IL-12; conditions: for production of cytokine IL-12: 24 hours
Procedure: as §5, §6, §7, §8, §9

[14] = mouse spleen cells, read-out: Lymphocytotoxicity CC50
[15] = mouse spleen cells, ConA, read-out: Inhibiting activity of T lymphocyte proliferation response induced by ConA IC50
[16] = mouse spleen cells, LPS, read-out: Inhibiting activity of B lymphocyte proliferation response induced by LPS IC50
[17] = SM735 10−^5 Mol/L, stimulator LPS
[18] = SM735 10−^5 Mol/L, stimulator PMA + Ion
[19] = SM735 10−^6 Mol/L, stimulator LPS
[20] = SM735 10−^6 Mol/L, stimulator PMA + Ion
[21] = SM735 10−^7 Mol/L, stimulator LPS
[22] = SM735 10−^7 Mol/L, stimulator PMA + Ion

Compound: C[C@@H]1CC[C@H]2[C@@H](C)C(=O)O[C@@H]3O[C@@]4(C)CC[C@@H]1[C@]32OO4 [artemisinine, artemisinin]
- CC50 at 48 h [1]: 28300 nM
- IC50 ([2]; T-lymphocyte, mouse spleen cells, ConA, read-out: Inhibiting activity of T lymphocyte proliferation response induced by ConA IC50): 4430 nM
- IC50 ([3]; Lymphocyte, mouse spleen cells, LPS, read-out: Inhibiting activity of B lymphocyte proliferation response induced by LPS IC50): 8960 nM

Compound: C[C@H]1[C@H](OC(=O)CCC(=O)O)O[C@@H]2O[C@@]3(C)CC[C@H]4[C@H](C)CC[C@@H]1[C@@]24OO3 [artesunate, reference compound]
- CC50 [4, 14]: 86000 nM
- IC50 [2, 15]: 3820 nM

Compound: COC(=O)Cc1ccc(OC2OC3OC4(C)CCC5C(C)CCC(C2C)C35OO4)cc1 (stereo not drawn) [compound 1, methyl 4-(12β-artemisininoxy)phenyl acetate]
- CC50 [4, 14]: 8000 nM
- IC50 [2, 15]: 713 nM
- IC50 [3, 16]: 179 nM

Compound: CC1CCC2C(C)C(Oc3ccc(CC(=O)O)cc3)OC3OC4(C)CCC1C32OO4 (stereo not drawn) [compound 2, 4-(12β-artemisininoxy)phenyl acetic acid]
- CC50 [4, 14]: 100000 nM
- IC50 [2, 15]: 11800 nM
- IC50 [3, 16]: 10200 nM

Compound: CC1CCC2C(C)C(Oc3cccc(OC(CC(=O)O)C(=O)O)c3)OC3OC4(C)CCC1C32OO4 (stereo not drawn) [compound 3, 3-(12β-artemisininoxy)phenoxy succinic acid]
- effect in rat adjuvant-induced arthritis animal model [5]: certain preventive and therapeutic effect
- cytotoxicity CC50 ([4]; BALB/c mouse spleen cells): 27 µg/mL
- CC50 ([4]; BALB/c mouse spleen cells, mean ± standard error, read-out: cytotoxicity CC50): 53100 ± 7800 nM
- CC50 [4, 14]: 52700 nM
- IC50, T lymphocyte proliferation response induced by ConA [2]: 0.13 µg/mL (≈ 0.264 µM)
- IC50 ([2]; mean ± standard error, read-out: IC50, proliferation of spleen cells induced by ConA): 330 ± 60 nM
- IC50 [2, 15]: 327 nM
- DTH reaction induced by DNFB [6]: inhibited
- IC50, proliferation response caused by mixed lymphocyte reaction ([7]; 96 hours): 2.1 µg/mL (≈ 4.26 µM)
- IC50 ([7]; read-out: IC50, one way mixed lymphocyte reaction, co-cultured for 96 hours, no unit printed): 860 ± 180 nM
- antibody and complement production by mouse B cell (antibody forming cell) [8]: inhibited
- IC50, B lymphocyte proliferation response induced by LPS [3]: 0.12 µg/mL (≈ 0.244 µM)
- IC50 ([3]; mean ± standard error, read-out: IC50, proliferation of spleen cells induced by LPS): 270 ± 20 nM
- IC50 [3, 16]: 265 nM
- production of cytokine IL-2 ([9]; SM735 10−^5 Mol/L): 2053 ± 162 pg/mL
- production of cytokine IL-2 ([9]; SM735 10−^6 Mol/L): 2343 ± 154 pg/mL
- production of cytokine IL-2 ([9]; SM735 10−^7 Mol/L): 2250 ± 77 pg/mL
- production of cytokine IFN-γ ([10]; SM735 10−^5 Mol/L, stimulator ConA): 322 ± 18 pg/mL
- production of cytokine IFN-γ [10, 17]: 103 ± 7 pg/mL
- production of cytokine IFN-γ [10, 18]: 144 ± 21 pg/mL
- production of cytokine IFN-γ ([10]; SM735 10−^6 Mol/L, stimulator ConA): 976 ± 18 pg/mL
- production of cytokine IFN-γ [10, 19]: 172 ± 2 pg/mL
- production of cytokine IFN-γ [10, 20]: 557 ± 31 pg/mL
- production of cytokine IFN-γ ([10]; SM735 10−^7 Mol/L, stimulator ConA): 1219 ± 33 pg/mL
- production of cytokine IFN-γ [10, 21]: 207 ± 13 pg/mL
- production of cytokine IFN-γ [10, 22]: 768 ± 6 pg/mL
- production of IFN-γ (result in words) ([10]; activated lymphocytes): inhibited
- production of TNF-α (result in words) [11]: obviously inhibited
- production of cytokine IL-6 [12, 17]: 522 ± 1 pg/mL
- production of cytokine IL-6 [12, 18]: 1465 ± 35 pg/mL
- production of cytokine IL-6 [12, 19]: 792 ± 42 pg/mL
- production of cytokine IL-6 [12, 20]: 2663 ± 52 pg/mL
- production of cytokine IL-6 [12, 21]: 840 ± 10 pg/mL
- production of cytokine IL-6 [12, 22]: 2886 ± 26 pg/mL
- production of IL-6 (result in words) ([12]; stimulated with PMA, dose dependent): obviously inhibited
- production of cytokine IL-12 [13, 17]: 292 ± 26 pg/mL
- production of cytokine IL-12 [13, 18]: 198 ± 35 pg/mL
- production of cytokine IL-12 [13, 19]: 565 ± 18 pg/mL
- production of cytokine IL-12 [13, 20]: 487 ± 37 pg/mL
- production of cytokine IL-12 [13, 21]: 592 ± 33 pg/mL
- production of cytokine IL-12 [13, 22]: 586 ± 52 pg/mL
- production of IL-12 (result in words) ([13]; activated lymphocytes): inhibited

Compound: CC1CCC2C(C)C(Oc3ccc(OCC(=O)OCCN(C)C)cc3)OC3OC4(C)CCC1C32OO4 (stereo not drawn) [compound 4, dimethylaminoethyl-[4-(12β-artemisininoxy)phenoxy] acetate]
- CC50 [4, 14]: 2080 nM
- IC50 [2, 15]: 1960 nM
- IC50 [3, 16]: 49.6 nM

Compound: CCOC(=O)CNC(=O)c1ccc(OC2OC3OC4(C)CCC5C(C)CCC(C2C)C35OO4)cc1 (stereo not drawn) [compound 5, ethyl-[4-(12β-artemisininoxy)benzoyl] aminoacetate]
- CC50 [4, 14]: 39000 nM
- IC50 [2, 15]: 2530 nM
- IC50 [3, 16]: 160 nM

Compound: COC(=O)C(C)c1ccc(OC2OC3OC4(C)CCC5C(C)CCC(C2C)C35OO4)cc1 (stereo not drawn) [compound 21, methyl 2-[4-(12β-artemisininoxy)phenyl] propionate]
- CC50 [4, 14]: 7800 nM
- IC50 [2, 15]: 64 nM
- IC50 [3, 16]: 160 nM
